Results as given in US12043670B2, “Anti-BCMA antibody-drug conjugates and methods of use” (Eisai R&D Management Co., Ltd., priority 2020, dated 2024).
Where a SMILES comes first, the peptide text is derived from it. [ ]: non-standard residue; d: D form. Dolaproine = CO[C@@H]([C@@H]1CCCN1)[C@@H](C)C(=O)O; Dil = CC[C@H](C)[C@H](NC)[C@@H](CC(=O)O)OC; NMeV = CN[C@H](C(=O)O)C(C)C

How the values were obtained:
Type in all cases: cell-based, human
MOLP8 cells = assay: CellTiter-Glo cell viability, MOLP8; settings: MOLP8 cells, 6 days; for LD50 / GI50: CellTiter-Glo; for GI50: read-out: GI50; for RminAve: negative = cell death vs T0
EJM cells = assay: 6-day CellTiter-Glo cell viability, EJM; settings: EJM cells, 6 days; for LD50 / GI50: CellTiter-Glo; for GI50: read-out: GI50; for RminAve: negative = cell death vs T0
OPM2 cells = assay: CellTiter-Glo cell viability, OPM2 (normal serum); settings: OPM2 cells, 6 days; for LD50 / GI50: CellTiter-Glo; for GI50: read-out: GI50; for RminAve: negative = cell death vs T0
AMO-1 cells = assay: 6-day CellTiter-Glo cell viability, AMO-1; settings: AMO1 cells, 6 days; for LD50 / GI50: CellTiter-Glo; for GI50: read-out: GI50; for RminAve: negative = cell death vs T0
MM1.S cells = assay: CellTiter-Glo cell viability, MM1.S; settings: MM1S cells, 6 days; for LD50 / GI50: CellTiter-Glo; for GI50: read-out: GI50; for RminAve: negative = cell death vs T0
NCI-H929 cells = assay: CellTiter-Glo cell viability, NCI-H929 (normal serum); settings: NCIH929 cells, 6 days; for LD50 / GI50: CellTiter-Glo; for GI50: read-out: GI50; for RminAve: negative = cell death vs T0
MM1.R cells = assay: CellTiter-Glo cell viability, MM1.R; settings: MM1R cells, 6 days; for LD50 / GI50: CellTiter-Glo; for GI50: read-out: GI50; for RminAve: negative = cell death vs T0
LP-1 cells = assay: 6-day CellTiter-Glo cell viability, LP-1; settings: LP1 cells, 6 days; for LD50 / GI50: CellTiter-Glo; for GI50: read-out: GI50; for RminAve: negative = cell death vs T0
U266B1 cells = assay: 6-day CellTiter-Glo cell viability, U266B1; settings: U266B1 cells, 6 days; for LD50 / GI50: CellTiter-Glo; for GI50: read-out: GI50; for RminAve: negative = cell death vs T0
RPMI-8226 cells = assay: 6-day CellTiter-Glo cell viability, RPMI-8226; settings: RPMI8226 cells, 6 days; for LD50 / GI50: CellTiter-Glo; for GI50: read-out: GI50; for RminAve: negative = cell death vs T0
KMS-11 cells = assay: 6-day CellTiter-Glo cell viability, KMS-11; settings: KMS11 cells, 6 days; for LD50 / GI50: CellTiter-Glo; for GI50: read-out: GI50; for RminAve: negative = cell death vs T0

## CC[C@H](O)[C@@H](C)[C@H]1O[C@@H]1C[C@@](C)(O)/C=C/C=C(\C)[C@H]1OC(=O)C[C@H](O)CC[C@@](C)(O)[C@@H](OC(=O)N2CCN(C3CCCCCC3)CC2)/C=C/[C@@H]1C [E7107 (D11)]
MOLP8 cells
  AUC (nM * % relative viability): 361.7797 nM * % relative viability
  LD50: 16.8329 nM
  GI50: 2.43 nM
  RminAve: −99.6765%
EJM cells
  AUC (nM * % relative viability): 434.2294 nM * % relative viability
  LD50: 22.175 nM
  GI50: 9.45 nM
  RminAve: −99.071%
OPM2 cells
  AUC (nM * % relative viability): 289.9829 nM * % relative viability
  LD50: 4.7541 nM
  GI50: 1.67 nM
  RminAve: −99.6884%
AMO-1 cells
  AUC (nM * % relative viability): 487.7156 nM * % relative viability
  LD50: 50.4287 nM
  GI50: 14.9 nM
  RminAve: −96.8372%
MM1.S cells
  AUC (nM * % relative viability): 380.5913 nM * % relative viability
  LD50: 18.155 nM
  GI50: 3.51 nM
  RminAve: −99.7761%
NCI-H929 cells
  AUC (nM * % relative viability): 321.415 nM * % relative viability
  LD50: 5.836 nM
  GI50: 2.81 nM
  RminAve: −99.8426%
MM1.R cells
  AUC (nM * % relative viability): 374.4113 nM * % relative viability
  LD50: 16.5876 nM
  GI50: 3.33 nM
  RminAve: −99.831%
LP-1 cells
  AUC (nM * % relative viability): 313.7701 nM * % relative viability
  LD50: 6.2485 nM
  GI50: 2.2 nM
  RminAve: −99.6676%
U266B1 cells
  AUC (nM * % relative viability): 422.0108 nM * % relative viability
  LD50: 18.2733 nM
  GI50: 8.76 nM
  RminAve: −95.1886%
RPMI-8226 cells
  AUC (nM * % relative viability): 359.1272 nM * % relative viability
  LD50: 10.8782 nM
  GI50: 3.59 nM
  RminAve: −99.7762%
KMS-11 cells
  AUC (nM * % relative viability): 382.1527 nM * % relative viability
  LD50: 13.1801 nM
  GI50: 5.03 nM
  RminAve: −99.2702%

## CC[C@H](C)[C@@H]([C@@H](CC(=O)N1CCC[C@H]1[C@H](OC)[C@@H](C)C(=O)N[C@@H](Cc1ccccc1)C(=O)O)OC)N(C)C(=O)[C@@H](NC(=O)[C@@H](NC)C(C)C)C(C)C [MMAF] (H-[NMeV]V[Dil][Dolaproine]F-OH)
MOLP8 cells
  AUC (nM * % relative viability): 788.7538 nM * % relative viability
  LD50: 4689.579 nM
  GI50: 254 nM
  RminAve: −58.9492%
EJM cells
  AUC (nM * % relative viability): 600.0131 nM * % relative viability
  LD50: 194.3761 nM
  GI50: 51.5 nM
  RminAve: −98.8551%
OPM2 cells
  AUC (nM * % relative viability): 740.134 nM * % relative viability
  LD50: 723.9832 nM
  GI50: 348 nM
  RminAve: −99.7203%
AMO-1 cells
  AUC (nM * % relative viability): 640.894 nM * % relative viability
  LD50: 243.7059 nM
  GI50: 101 nM
  RminAve: −99.5356%
MM1.S cells
  AUC (nM * % relative viability): 726.0671 nM * % relative viability
  LD50: 615.7256 nM
  GI50: 296 nM
  RminAve: −99.8301%
NCI-H929 cells
  AUC (nM * % relative viability): 734.8893 nM * % relative viability
  LD50: 676.4428 nM
  GI50: 321 nM
  RminAve: −99.782%
MM1.R cells
  AUC (nM * % relative viability): 721.5643 nM * % relative viability
  LD50: 584.6173 nM
  GI50: 281 nM
  RminAve: −99.7818%
LP-1 cells
  AUC (nM * % relative viability): 724.5606 nM * % relative viability
  LD50: 761.0403 nM
  GI50: 223 nM
  RminAve: −97.9742%
U266B1 cells
  AUC (nM * % relative viability): 661.824 nM * % relative viability
  LD50: 192.3371 nM
  GI50: 67.8 nM
  RminAve: −89.2656%
RPMI-8226 cells
  AUC (nM * % relative viability): 714.2788 nM * % relative viability
  LD50: 557.1533 nM
  GI50: 224 nM
  RminAve: −95.3537%
KMS-11 cells
  AUC (nM * % relative viability): 706.6578 nM * % relative viability
  LD50: 490.3828 nM
  GI50: 235 nM
  RminAve: −98.8009%

## N.N.[Cl][Pt][Cl] [cisplatin]
MOLP8 cells
  GI50: 5070 nM
  RminAve: −99.8824%
EJM cells
  GI50: 30100 nM
  RminAve: −99.8757%
OPM2 cells
  GI50: 17000 nM
  RminAve: −99.784%
AMO-1 cells
  GI50: 8590 nM
  RminAve: −99.8648%
MM1.S cells
  GI50: 10200 nM
  RminAve: −99.8687%
NCI-H929 cells
  GI50: 21400 nM
  RminAve: −99.945%
MM1.R cells
  GI50: 7300 nM
  RminAve: −99.9355%
LP-1 cells
  GI50: 50100 nM
  RminAve: −97.8184%
U266B1 cells
  GI50: 39900 nM
  RminAve: −99.4122%
RPMI-8226 cells
  GI50: 16300 nM
  RminAve: −99.2206%
KMS-11 cells
  GI50: 14400 nM
  RminAve: −99.8489%
